Values of other authors as cited in US20190185438A1 (Tonix Pharmaceuticals Holding Corp., priority 2016, published 2019).
Where two headings read alike, the source gives them in different places. Marks after values point to notes of the source that are not given here.

Experiments:
[1] = test system: patients with fibromyalgia
[2] = test system: patients with fibromyalgia; conditions: 8 weeks
[3] = 4 mg/day, week 14, 10-point scale, p <0.001

## CCOc1ccccc1O[C@@H](c1ccccc1)[C@@H]1CNCCO1 [Esreboxetine, (2S)-2-[(S)-(2-ethoxyphenoxy)-phenylmethyl]morpholine]
[1]; 4 mg/day and 8 mg/day, 14 weeks, P=0.001
  GFI score compared to placebo: significant improvement
[1]; [3]
  GFI score, treatment difference: −0.64* (10-point scale)
  Pain score, treatment difference: −0.74* (10-point scale)
[1]; 4 mg/day, week 14, 100-point scale, p <0.001
  FIQ score, treatment difference: −7.12* (100-point
[1]; 4 mg/day, week 14, p 0.002
  PGIC, much improved or very much improved: 41.7%**
[1]; 14 weeks
  Tolerability: generally well tolerated
[1]; all doses (4, 8, 10 mg/day), 14 weeks, P≤0.007
  PGIC score compared to placebo: significant improvement
[1]; all doses (4, 8, 10 mg/day), 14 weeks, P≤0.023
  FIQ score compared to placebo: significant improvement
[1]; all doses (4, 8, 10 mg/day), 14 weeks, P≤0.025
  Pain score compared to placebo: significant improvement
[2]
  Tolerability: generally well-tolerated
[2]; 2 mg/day raised to 8 mg/day or maximum tolerated dose
  Pain scores compared to placebo: statistically significant reductions
[2]; placebo 2.3%
  Patients discontinued due to adverse events: 8.2%
